# Laboratory results taken from US11597708B2, “Inhibitors of heat shock factors and uses thereof” (HSF Pharmaceuticals SA, priority 2016, dated 2023).
# Columns and labels:
# [1] = test system: HeLa cells; assay: Flow cytometric analysis of DNA (sub-G0/G1 fraction); assay type: cell-based, human; conditions: 12.5 or 25 μM for up to 24 h
# Protocol: FIG. 6. (A) HeLa cell cultures were mock-exposed (−) or exposed to the indicated concentrations of compound 115 for 24 (left panel) or 96 (right panel) hours. Cell viability of total cultures, floating cells and attached cells was assayed using an Alamar Blue assay. (B) HeLa cell cultures were mock-exposed (−) or exposed to the indicated concentrations of compound 115 for 15-96 hours. Trypan Blue dye exclusion was employed to determine numbers of live cells (left panel) and relative levels of necrotic cells (right panel). (C) HeLa cell cultures were mock-exposed (−) or exposed to the indicated concentrations of compound 115 for 6 and 24 h. Shown are relative levels of early apoptotic cells (annexin-positive, 7 aminoactinomycin D-negative). (D) Flow cytometric analysis of DNA of HeLa cell cultures mock-exposed (−) or exposed to the indicated concentrations of compound 115 for 6, 15 and 24 hours. Relative levels of apoptotic cells are indicated.
# Further studies were aimed at finding out whether IHSF-exposed cancer cells were only growth-arrested or were actually killed and, if they were killed, by what mechanism. […] The viability signal (in whole cultures and, more dramatically, when only attached cells were analyzed) decreased as a function of IHSF concentration. […] Stained (necrotic) and unstained (live) cells were counted (FIG. 6B). […]
# [2] = test system: MM.1S; assay: Alamar Blue viability assay; assay type: cell-based, human
# Protocol: FIG. 5. (A) Viability of HeLa cell cultures mock-exposed (−) or exposed to the indicated concentrations of compounds 001, 058 or 115. (B) Viability of MM.1S cells mock-exposed (−) or exposed to the indicated concentrations of compound 115. Viability was assayed after 96 hours of exposure using an Alamar Blue assay.
# Cultures of HeLa cells were exposed for 96 hours to different concentrations of IHSF 001, 058 and 115, and viability was assessed using an Alamar Blue assay. It is noted that this standard assay examines attached cells only. This subject will be discussed in more detail below. […] The relative cytotoxicity of the compounds appears to parallel their respective activities as inhibitors of HSF1 function (inhibition of RLuc expression in Z74 cells). We next examined the viability of different human cancer cell lines subsequent to a 96-hour exposure to compound 115 (Table 3). HSF1 was reported as being required for optimal p21 expression and for p53-mediated cell cycle arrest in response to genotoxins. Logan, I. R. et al. (2009) Nucleic Acids Res. 37: 2962-2971. […] Cell lines of different p53 status were included in the experiments in order to find out whether sensitivity to IHSF 115 was related to p53 status. […] No effect of p53 status could be discovered. It is noted that a number of additional HSF inhibitors of the present disclosure were tested and found to effectively reduce the viability of human cancer cells.
smiles,measurement,setting,value
"CN(C(=O)/C=C/C1=NCCCO1)c1ncc(-c2cccnc2)s1 [IHSF 115, (E)-3-(5,6-Dihydro-4H-[1,3]oxazin-2-yl)-N-methyl-N-(5-pyridin-3-yl-thiazol-2-yl)-acrylamide]",sub-G0/G1 fractions (% of cells included),[1],≤ 6%
same,concentration at which complete loss of viability of MM.1S cells occurred,"[2]; 96 hours exposure, Alamar Blue",6.25 µM
same,EC50,"[2]; Homo sapiens, MM1.S, MM.1S, Multiple myeloma, P53 Wt, 96-hour exposure",1700 nM
same,"concentration at which complete loss of viability of MM.1S cells occurred, in some experiments",[2]; in some experiments already,3.125 µM
